Measured values published in EPA's ToxRefDB 2.

How the values were obtained:
mouse [1] = conditions: Carcinogenicity; b6c3f1; Oral; Feed; dose end: 78 week; group: systemic; systemic / in life observation / body weight / body weight
rat [2] = conditions: Carcinogenicity; fischer; Oral; Feed; dose end: 78 week; group: systemic; systemic / in life observation / body weight / body weight
mouse [3] = conditions: Prenatal developmental toxicity study; cd1; Oral; Gavage/Intubation; dose end: 14 GD; group: maternal; systemic / in life observation / body weight / body weight gain + systemic / in life observation / mortality / mortality
rabbit [4] = conditions: Prenatal developmental toxicity study, new zealand white, Oral, Gavage/Intubation, dose end: 20 GD
rabbit [5] = conditions: Prenatal developmental toxicity study, himalayan, Oral, Gavage/Intubation, dose end: 28 GD
dog [6] = conditions: Chronic toxicity; beagle; Oral; Feed; dose end: 52 week; group: systemic; systemic / clinical chemistry / aminopyrine-n-demethylase / aminopyrine-n-demethylase + systemic / in life observation / body weight / body …
mouse [7] = conditions: Carcinogenicity; b6c3f1; Oral; Feed; dose end: 104 week; group: systemic; systemic / in life observation / body weight / body weight + systemic / in life observation / body weight / body weight gain + systemic / in…
rat [8] = conditions: Subchronic oral toxicity in rodents, wistar, Feed, dose end: 14 week, group: systemic
rat [9] = conditions: Multigenerational reproductive toxicity study, wistar, Oral, Feed, dose end: 2 generation
rat [10] = conditions: Chronic toxicity; sprague dawley; Oral; Feed; dose end: 104 week; group: systemic; systemic / pathology microscopic / mammary gland / mixed tumor nos + systemic / in life observation / body weight / body weight gain + …
rat [11] = conditions: Prenatal developmental toxicity study; sprague dawley; Oral; Gavage/Intubation; dose end: 17 GD; group: maternal; systemic / in life observation / body weight / body weight gain
mouse [12] = conditions: Carcinogenicity; b6c3f1; Oral; Feed; dose end: 101 week; group: systemic; systemic / in life observation / body weight / body weight + systemic / pathology microscopic / liver / hyperplasia + systemic / pathology …
rat [13] = conditions: Combined chronic toxicity/carcinogenicity, fischer, Oral, Feed, dose end: 103 week, group: systemic
mouse [14] = conditions: Subchronic oral toxicity in rodents, b6c3f1, Feed, dose end: 7 week, group: systemic, systemic / in life observation / body weight / body weight
rat [15] = conditions: Subchronic oral toxicity in rodents, fischer, Feed, dose end: 7 week, group: systemic
mouse [16] = conditions: Subchronic oral toxicity in rodents, b6c3f1, Gavage/Intubation, dose end: 13 week, group: systemic, systemic / in life observation / mortality / mortality
rat [17] = conditions: Carcinogenicity; fischer; Oral; Gavage/Intubation; dose end: 103 week; group: systemic; systemic / pathology microscopic / stomach / hyperkeratosis + systemic / pathology microscopic / stomach / hyperplasia + systemic / …
mouse [18] = conditions: Carcinogenicity; b6c3f1; Oral; Gavage/Intubation; dose end: 103 week; group: systemic; systemic / pathology microscopic / stomach / hyperkeratosis + systemic / pathology microscopic / stomach / hyperplasia + systemic / …
dog [19] = conditions: Subchronic oral toxicity in nonrodent, beagle, Feed, dose end: 90 day, group: systemic, systemic / pathology microscopic / kidney / vacuolization
dog [20] = conditions: Chronic toxicity; beagle; Oral; [Not Specified]; dose end: 12 month; group: systemic; systemic / in life observation / body weight / body weight + systemic / in life observation / body weight / body weight gain + systemic / …
rat [21] = conditions: Chronic toxicity, wistar, Oral, Feed, dose end: 108 week, group: systemic
rat [22] = conditions: Carcinogenicity; wistar; Oral; [Not Specified]; dose end: 24 month; group: systemic; systemic / in life observation / mortality / mortality
mouse [23] = conditions: Carcinogenicity, b6c3f1, Oral, Feed, dose end: 24 month, group: systemic
mouse [24] = conditions: Prenatal developmental toxicity study, cd1, Oral, Gavage/Intubation, dose end: 15 GD
mouse [25] = conditions: Multigenerational reproductive toxicity study, cd1, Oral, Feed, dose end: 2 generation
[26] = group: developmental, systemic / in life observation / body weight / fetal weight
[27] = group: maternal, reproductive / reproductive performance / aborted / aborted + systemic / in life observation / body weight / body weight gain
[28] = group: developmental, developmental / developmental malformation / bone / incomplete ossification + systemic / in life observation / body weight / fetal weight
[29] = group: developmental, developmental / developmental malformation / bone / incomplete ossification + systemic / in life observation / body weight / fetal weight + …
[30] = group: maternal, systemic / in life observation / clinical signs / alopecia + systemic / in life observation / clinical signs / cold ears + systemic / in …
[31] = systemic / organ weight / spleen / absolute + systemic / organ weight / spleen / relative to body weight + systemic / clinical chemistry / …
[32] = group: offspring, systemic / in life observation / body weight / offspring (pup) weight + systemic / pathology gross / liver / irregular surface + systemic / …
[33] = systemic / in life observation / body weight / body weight
[34] = systemic / in life observation / body weight / body weight + systemic / pathology microscopic / lung / mixed tumor nos + systemic / …
[35] = systemic / in life observation / body weight / body weight + systemic / clinical chemistry / calcium / calcium + systemic / clinical …
[36] = systemic / in life observation / body weight / body weight + systemic / in life observation / body weight / body weight gain + systemic / …
[37] = group: developmental, developmental / developmental malformation / bone / exencephaly + developmental / developmental malformation / trunk / omphalocele + …
[38] = group: maternal, reproductive / reproductive performance / resorptions / resorptions + systemic / in life observation / body weight / dam weight
[39] = group: maternal, reproductive / reproductive performance / resorptions / resorptions + systemic / in life observation / body weight / dam weight + …
[40] = group: offspring, systemic / in life observation / body weight / offspring (pup) weight + developmental / offspring survival late / lactation index / …
[41] = group: parental, systemic / in life observation / body weight / body weight + systemic / in life observation / body weight / body weight gain + systemic / in…
[42] = group: reproductive, reproductive / reproductive performance / fertility / fertility
[43] = group: reproductive, reproductive / reproductive performance / fertility / fertility + reproductive / offspring survival early / litter size / litter size

Cc1ccc([N+](=O)[O-])cc1N [2-Methyl-5-nitroaniline]
LEL (mouse [1]): 180 mg/kg/day
LOAEL (mouse [1]): 180 mg/kg/day
NEL (mouse [1]): < 180 mg/kg/day
NOAEL (mouse [1]): < 180 mg/kg/day
LEL (rat [2]): 2.5 mg/kg/day
LOAEL (rat [2]): 2.5 mg/kg/day
NEL (rat [2]): < 2.5 mg/kg/day
NOAEL (rat [2]): < 2.5 mg/kg/day

O=[N+]([O-])c1ccc(O)cc1 [4-Nitrophenol]
LEL (mouse [3]): 400 mg/kg/day
LOAEL (mouse [3]): > 400 mg/kg/day
NEL (mouse [3]): < 400 mg/kg/day
NOAEL (mouse [3]): ≥ 400 mg/kg/day

O=S(=O)(O)C(F)(F)C(F)(F)C(F)(F)C(F)(F)C(F)(F)C(F)(F)C(F)(F)C(F)(F)F [PFOS]
LEL (rabbit [4]; [26]): 3.75 mg/kg/day
LOAEL (rabbit [4]; [26]): > 3.75 mg/kg/day
NEL (rabbit [4]; [26]): 1 mg/kg/day
NOAEL (rabbit [4]; [26]): ≥ 3.75 mg/kg/day
LOAEL (rabbit [4]; [27]): > 2.5 mg/kg/day
NEL (rabbit [4]; [27]): 0.1 mg/kg/day
NOAEL (rabbit [4]; [27]): ≥ 2.5 mg/kg/day
LEL (rabbit [4]; group: maternal, systemic / in life observation / body weight / body weight gain): 1 mg/kg/day

COc1nn(C(=O)[N-]S(=O)(=O)c2ccccc2OC(F)(F)F)c(=O)n1C.[Na+] [Flucarbazone-sodium]
LEL (rabbit [5]; [28]): 500 mg/kg/day
LOAEL (rabbit [5]; [28]): 500 mg/kg/day
NEL (rabbit [5]; [29]): 300 mg/kg/day
NOAEL (rabbit [5]; [29]): 300 mg/kg/day
LEL (rabbit [5]; [30]): 300 mg/kg/day
LOAEL (rabbit [5]; [30]): 300 mg/kg/day
NEL (rabbit [5]; [30]): 100 mg/kg/day
NOAEL (rabbit [5]; [30]): 100 mg/kg/day
LEL (dog [6]): 183 mg/kg/day
LOAEL (dog [6]): 183 mg/kg/day
NEL (dog [6]): 35.9 mg/kg/day
NOAEL (dog [6]): 35.9 mg/kg/day
LEL (mouse [7]): 2070 mg/kg/day
LOAEL (mouse [7]): 2070 mg/kg/day
NEL (mouse [7]): 275 mg/kg/day
NOAEL (mouse [7]): 275 mg/kg/day
LEL (rat [8]; systemic / organ weight / spleen / absolute + systemic / organ weight / spleen / relative to body weight): 73.5 mg/kg/day
NEL (rat [8]; [31]): 17.6 mg/kg/day
NOAEL (rat [8]; [31]): 73.5 mg/kg/day
LOAEL (rat [8]; systemic / organ weight / spleen / absolute + systemic / organ weight / spleen / relative to body weight + systemic / pathology microscopic…): 287 mg/kg/day
LEL (rat [9]; [32]): 1060 mg/kg/day
LOAEL (rat [9]; [32]): 1060 mg/kg/day
NEL (rat [9]; [32]): 346 mg/kg/day
NOAEL (rat [9]; [32]): 346 mg/kg/day
LOAEL (rat [9]; group: parental, systemic / organ weight / uterus / absolute): 991 mg/kg/day
NOAEL (rat [9]; group: parental, systemic / organ weight / uterus / absolute + systemic / in life observation / body weight / body weight + systemic / in life observation / …): 340 mg/kg/day
LEL (rat [9]; group: parental, systemic / pathology gross / intestine large / dilatation): 453 mg/kg/day
NEL (rat [9]; group: parental, systemic / pathology gross / intestine large / dilatation + systemic / in life observation / clinical signs / defecation + systemic / in …): 5.5 mg/kg/day

C#C[C@]1(OC(C)=O)CC[C@H]2[C@@H]3CCC4=CC(=O)CC[C@@H]4[C@H]3CC[C@@]21C [Norethindrone acetate]
LEL (rat [10]): 0.289 mg/kg/day
LOAEL (rat [10]): > 3.3 mg/kg/day
NEL (rat [10]): < 0.289 mg/kg/day
NOAEL (rat [10]): ≥ 3.3 mg/kg/day

CCCCc1ncc(/C=C(\Cc2cccs2)C(=O)O)n1Cc1ccc(C(=O)O)cc1 [Eprosartan]
LEL (rat [11]): 1000 mg/kg/day
LOAEL (rat [11]): 1000 mg/kg/day
NEL (rat [11]): 100 mg/kg/day
NOAEL (rat [11]): 100 mg/kg/day

Cc1ccc(N)cc1N [2,4-Diaminotoluene]
LEL (mouse [12]): 15 mg/kg/day
LOAEL (mouse [12]): 15 mg/kg/day
NEL (mouse [12]): < 15 mg/kg/day
NOAEL (mouse [12]): < 15 mg/kg/day
LOAEL (rat [13]; [33]): 3.95 mg/kg/day
NOAEL (rat [13]; [33]): < 3.95 mg/kg/day
LEL (rat [13]; [34]): 3.95 mg/kg/day
NEL (rat [13]; [34]): < 3.95 mg/kg/day
LEL (mouse [14]): 30 mg/kg/day
LOAEL (mouse [14]): 45 mg/kg/day
NEL (mouse [14]): 15 mg/kg/day
NOAEL (mouse [14]): 30 mg/kg/day
LEL (rat [15]; [33]): 12.5 mg/kg/day
LOAEL (rat [15]; [33]): 25 mg/kg/day
NEL (rat [15]; [33]): < 12.5 mg/kg/day
NOAEL (rat [15]; systemic / in life observation / body weight / body weight + systemic / in life observation / mortality / mortality + systemic / pathology …): 12.5 mg/kg/day

C=CC(=O)OCC [Ethyl acrylate]
LEL (mouse [16]): 25 mg/kg/day
LOAEL (mouse [16]): > 25 mg/kg/day
NEL (mouse [16]): 12 mg/kg/day
NOAEL (mouse [16]): ≥ 25 mg/kg/day
LEL (rat [17]): 100 mg/kg/day
LOAEL (rat [17]): 100 mg/kg/day
NEL (rat [17]): < 100 mg/kg/day
NOAEL (rat [17]): < 100 mg/kg/day
LEL (mouse [18]): 100 mg/kg/day
LOAEL (mouse [18]): 100 mg/kg/day
NEL (mouse [18]): < 100 mg/kg/day
NOAEL (mouse [18]): < 100 mg/kg/day

Nc1cnn(-c2ccccc2)c(=O)c1Cl [Chloridazon]
LEL (dog [19]): 133 mg/kg/day
LOAEL (dog [19]): 133 mg/kg/day
NEL (dog [19]): < 133 mg/kg/day
NOAEL (dog [19]): < 133 mg/kg/day
LEL (dog [20]): 186 mg/kg/day
LOAEL (dog [20]): 186 mg/kg/day
NEL (dog [20]): < 186 mg/kg/day
NOAEL (dog [20]): < 186 mg/kg/day
LOAEL (rat [21]; [33]): 60 mg/kg/day
LEL (rat [21]; systemic / in life observation / body weight / body weight + systemic / clinical chemistry / calcium / calcium): 60 mg/kg/day
NEL (rat [21]; [35]): 18 mg/kg/day
NOAEL (rat [21]; [35]): 18 mg/kg/day
LEL (rat [22]): 150 mg/kg/day
LOAEL (rat [22]): > 200 mg/kg/day
NEL (rat [22]): < 150 mg/kg/day
NOAEL (rat [22]): ≥ 200 mg/kg/day
LOAEL (mouse [23]; systemic / in life observation / body weight / body weight + systemic / in life observation / body weight / body weight gain): 762 mg/kg/day
NEL (mouse [23]; [36]): 28 mg/kg/day
NOAEL (mouse [23]; [36]): 146 mg/kg/day
LEL (mouse [23]; systemic / pathology microscopic / lung / adenoma): 146 mg/kg/day

O=[As](O)(O)O [Arsenic acid]
LEL (mouse [24]; [37]): 64 mg/kg/day
LOAEL (mouse [24]; [37]): 64 mg/kg/day
NEL (mouse [24]; [37]): 32 mg/kg/day
NOAEL (mouse [24]; [37]): 32 mg/kg/day
LEL (mouse [24]; [38]): 32 mg/kg/day
LOAEL (mouse [24]; [38]): 32 mg/kg/day
NEL (mouse [24]; [39]): 10 mg/kg/day
NOAEL (mouse [24]; [39]): 10 mg/kg/day
LOAEL (mouse [25]; group: offspring, systemic / in life observation / body weight / offspring (pup) weight): 25 mg/kg/day
LEL (mouse [25]; [40]): 25 mg/kg/day
NEL (mouse [25]; [40]): 5 mg/kg/day
NOAEL (mouse [25]; [40]): 5 mg/kg/day
LEL (mouse [25]; [41]): 5 mg/kg/day
LOAEL (mouse [25]; [41]): 5 mg/kg/day
NEL (mouse [25]; [41]): 1 mg/kg/day
NOAEL (mouse [25]; [41]): 1 mg/kg/day
NEL (mouse [25]; [42]): 5 mg/kg/day
NOAEL (mouse [25]; [42]): 5 mg/kg/day
LEL (mouse [25]; [43]): 25 mg/kg/day
LOAEL (mouse [25]; [43]): 25 mg/kg/day
